Experimental findings from PubChem BioAssay AID256 (DTP/NCI, 2004) are described below.

Toxic doses and inconclusive results are not listed.

This assay has as its system CD2F1 mice, L1210 leukemia ip, survival T/C. The assay can be described thus: NCI In Vivo Anticancer Drug Screen. Data for tumor model L1210 Leukemia (intraperitoneal) in CD2F1 (CDF1) mice. Conditions: endpoint: mean survival time, higher = longer survival. A digest of the protocol:
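Transplantable tumor in mice; compound-treated vs vehicle-treated groups. Read-out = treated/control ratio of the measured endpoint.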

[1] abbreviates: dose: 50.0 mg/kg/injection, schedule: Q01DX009 (ip), vehicle: saline.
The mark [2] stands for this setting: dose: 100.0 mg/kg/injection, schedule: Q01DX009 (ip), vehicle: saline.
The mark [3] stands for this setting: dose: 100.0 mg/kg/injection, schedule: Q01DX001 (ip), vehicle: saline with Tween-80.
[4] abbreviates: dose: 200.0 mg/kg/injection, schedule: Q01DX001 (ip), vehicle: saline with Tween-80.
Where [5] appears, read: dose: 400.0 mg/kg/injection, schedule: Q01DX001 (ip), vehicle: saline with Tween-80.
The mark [6] stands for this setting: dose: 100.0 mg/kg/injection, schedule: Q04DX003 (ip), vehicle: saline with Tween-80.
Where [7] appears, read: dose: 100.0 mg/kg/injection, schedule: Q04DX003 (ip), vehicle: saline.
The mark [8] stands for this setting: dose: 200.0 mg/kg/injection, schedule: Q04DX003 (ip), vehicle: saline with Tween-80.
Setting [9] is: dose: 200.0 mg/kg/injection, schedule: Q04DX003 (ip), vehicle: saline.
Setting [10] is: dose: 100.0 mg/kg/injection, schedule: Q01DX009 (ip), vehicle: saline with Tween-80.
The mark [11] stands for this setting: dose: 200.0 mg/kg/injection, schedule: Q01DX009 (ip), vehicle: saline with Tween-80.
[12] abbreviates: dose: 400.0 mg/kg/injection, schedule: Q01DX009 (ip), vehicle: saline with Tween-80.
The mark [13] stands for this setting: dose: 400.0 mg/kg/injection, schedule: Q04DX003 (ip), vehicle: saline with Tween-80.

Take `CN(C)c1ccc(/C=C\C(=O)c2ccccc2)cc1`: the T/C is 109 % of control under setting [1]; 97 % of control under setting [2]; 106 % of control (dose: 200.0 mg/kg/injection, schedule: Q01DX009 (ip), vehicle: saline).

On to `CC(=O)NC1C(OS(=O)(=O)c2ccc(C)cc2)C(NC(C)=O)C(OC(C)=O)C(OC(C)=O)C1OC(C)=O` (configuration not stated), for which the T/C under setting [3] is 97 % of control, the T/C under setting [4] was 103 % of control and the T/C under setting [5] was 101 % of control.

As to `C/C=C(\C)c1cc(=O)c2c(C)cc3c(c2o1)C(OC)(OC(C)=O)c1c(O)c(C2CC(C)(N(C)C)C(OC(C)=O)C(C)O2)cc(C2CC(N(C)C)C(OC(C)=O)C(C)O2)c1C3=O` (configuration not stated), the T/C runs as follows: (dose: 50.0 mg/kg/injection, schedule: Q04DX003 (ip), vehicle: saline with Tween-80) 112 % of control; under setting [6], 110 % of control; under setting [7], 109 % of control; under setting [8], 97 % of control; under setting [9], 91 % of control.

As to `COc1ccc(C(=O)/C=C/c2ccc(O)cc2)cc1`, the T/C (dose: 37.5 mg/kg/injection, schedule: Q01DX009 (ip), vehicle: saline) is 98 % of control; the T/C (dose: 75.0 mg/kg/injection, schedule: Q01DX009 (ip), vehicle: saline) is 102 % of control; the T/C (dose: 150.0 mg/kg/injection, schedule: Q01DX009 (ip), vehicle: saline) was 98 % of control.

Regarding `CCCCCCNC(=O)Nc1cccc(Cl)c1C`, the T/C under setting [10] was 94 % of control; the T/C under setting [6] is 91 % of control; the T/C under setting [11] was 94 % of control; the T/C under setting [12] was 103 % of control; the T/C under setting [13] is 92 % of control.

In the case of `N#Cc1cn(C2OC(CO)C3OC32)c2ncnc(NC(=O)c3ccccc3)c12` (configuration not stated), the T/C is, setting by setting: (dose: 25.0 mg/kg/injection, schedule: Q01DX005 (ip), vehicle: distilled water + Tween-80) 103 % of control; (dose: 50.0 mg/kg/injection, schedule: Q01DX005 (ip), vehicle: distilled water + Tween-80) 104 % of control; (dose: 100.0 mg/kg/injection, schedule: Q01DX005 (ip), vehicle: distilled water + Tween-80) 114 % of control; (dose: 200.0 mg/kg/injection, schedule: Q01DX005 (ip), vehicle: distilled water + Tween-80) 110 % of control.

For `C1=CC2CC3(OCCO3)C2C1` (configuration not stated), the T/C reads like this: under setting [10], 98 % of control; under setting [11], 98 % of control.

With `CCOC(=O)/C(O)=C\c1cc(OC)nnc1Cl`, the T/C was 114 % of control (dose: 12.5 mg/kg/injection, schedule: Q04DX002 (ip), vehicle: saline with Tween-80); 101 % of control (dose: 25.0 mg/kg/injection, schedule: Q04DX002 (ip), vehicle: saline with Tween-80); 101 % of control (dose: 50.0 mg/kg/injection, schedule: Q04DX002 (ip), vehicle: saline with Tween-80).

For `COc1cc(C=O)cc(O)c1O`, the T/C (dose: 50.0 mg/kg/injection, schedule: Q01DX001 (ip), vehicle: saline) was 94 % of control; the T/C (dose: 100.0 mg/kg/injection, schedule: Q01DX001 (ip), vehicle: saline) is 96 % of control; the T/C under setting [7] is 95 % of control; the T/C (dose: 200.0 mg/kg/injection, schedule: Q01DX001 (ip), vehicle: saline) was 91 % of control; the T/C under setting [9] was 92 % of control; the T/C (dose: 400.0 mg/kg/injection, schedule: Q01DX001 (ip), vehicle: saline) was 89 % of control. Moreover, the T/C (dose: 400.0 mg/kg/injection, schedule: Q04DX003 (ip), vehicle: saline) was 92 % of control.

As to `CC1(C)N=C(N)N=C(N)N1c1cccc(CC(=O)Nc2ccc(S(=O)(=O)F)cc2)c1`, the T/C is 120 % of control under setting [1]; 117 % of control under setting [2]; 120 % of control (dose: 300.0 mg/kg/injection, schedule: Q01DX009 (ip), vehicle: saline).

On to `Nc1cc(Cl)ccc1C(=O)O`, for which the T/C is 103 % of control under setting [10], 104 % of control under setting [11] and 86 % of control under setting [12].

Consider `CC(=Nc1ccccc1)c1ccc2ccccc2c1`, for which the T/C is 98 % of control under setting [6], 93 % of control under setting [8] and 97 % of control under setting [13].

For the compound `CCOC1OC(C(COC(C)=O)OC(C)=O)C(OC(C)=O)C(OC(C)=O)C1OC(C)=O` (configuration not stated), the T/C reads like this: under setting [3], 104 % of control; under setting [4], 96 % of control; under setting [5], 101 % of control.

For `Nc1nc(N)c2nc(CSc3ccc(C(=O)NC(CCC(=O)O)C(=O)O)cc3)ccc2n1` (configuration not stated), the T/C is, setting by setting: (dose: 0.5 mg/kg/injection, schedule: Q01DX005 (ip), vehicle: sodium bicarbonate) 121 % of control; (dose: 2.0 mg/kg/injection, schedule: Q01DX005 (ip), vehicle: sodium bicarbonate) 154 % of control.

`CCCCCOCC`: the T/C (dose: 100.0 mg/kg/injection, schedule: Q04DX002 (ip), vehicle: saline with Tween-80) was 102 % of control; the T/C (dose: 200.0 mg/kg/injection, schedule: Q04DX002 (ip), vehicle: saline with Tween-80) was 98 % of control; the T/C (dose: 400.0 mg/kg/injection, schedule: Q04DX002 (ip), vehicle: saline with Tween-80) was 98 % of control.

Turning to `COc1ccc2c(c1)CCN=C2CCN1C(=O)CCC1=O`, the T/C was 101 % of control under setting [7] and 98 % of control under setting [9].

Consider `CC(=O)CC(OC(=O)c1cc([N+](=O)[O-])cc([N+](=O)[O-])c1)(C(F)(F)F)C(F)(F)F`, for which the T/C (dose: 100.0 mg/kg/injection, schedule: Q04DX003 (ip), vehicle: Klucel (hydroxypropylcellulose) (HPC)) is 91 % of control.

`COC(=O)C1(C)CCCC2(C)C1CCC13C2CC1C1(C(C)C)OC31` (configuration not stated): the T/C under setting [6] is 89 % of control and the T/C under setting [8] is 92 % of control.

Take `O=C(Nc1cc2ccccc2o1)N1CCOCC1`: the T/C reads like this: (dose: 50.0 mg/kg/injection, schedule: Q01DX001 (ip), vehicle: saline with Tween-80) 94 % of control; under setting [3], 97 % of control; under setting [4], 100 % of control.

Regarding `Nc1nnn(CCO)n1`, the T/C reads like this: under setting [10], 100 % of control; under setting [11], 97 % of control; under setting [12], 96 % of control.

As for `CCCC/C=C\C(=O)O`, the T/C was 102 % of control (dose: 50.0 mg/kg/injection, schedule: Q01DX009 (ip), vehicle: saline with Tween-80); 102 % of control under setting [10]; 98 % of control under setting [11].

Regarding `O=[N+]([O-])O.[Er]`, the T/C reads like this: (dose: 25.0 mg/kg/injection, schedule: Q04DX003 (ip), vehicle: saline) 96 % of control; (dose: 50.0 mg/kg/injection, schedule: Q04DX003 (ip), vehicle: saline) 87 % of control; under setting [7], 87 % of control.

With `CC(C)CN(CC(C)C)c1ccc([N+](=O)[O-])cc1[N+](=O)[O-]`, the T/C under setting [10] was 97 % of control, the T/C under setting [11] is 95 % of control and the T/C under setting [12] is 94 % of control.
